Series [1] deals with BV-2. Nature of the series: Anti-inflammatory activity in mouse BV2 cells assessed as inhibition of LPS-induced nitric oxide production after 24 hrs by griess assay. It counts as functional, cell-based. The conditions noted are these: for IC50: BV-2, 24 h. For orientation: Nitrite, measured by Griess reagent, commonly stands in for NO production.
The nature of series [2]: Cytotoxicity against LPS-stimulated mouse BV2 cells assessed as cell viability at 20 uM after 24 hrs by MTT assay relative to control. The format is cell-based, BV-2. The conditions noted are these: read-out: Activity.
The test system of series [3] is BV-2. Nature of the series: Cytotoxicity against LPS-stimulated mouse BV2 cells assessed as reduction in cell viability at <10 uM after 24 hrs by MTT assay. The format is cell-based. The conditions noted are these: bv-2, 24 h. For orientation: Formazan colour is commonly taken as a measure of viable cells.
The subject of series [4] is BV-2. In words: Anti-inflammatory activity in mouse BV2 cells assessed as inhibition of LPS-induced iNOS expression after 24 hrs by Western blot analysis. It counts as functional, cell-based. A general note: Immunoblotting shows a protein as a band on a membrane.
The test system of series [5] is BV-2. Nature of the series: Anti-inflammatory activity in mouse BV2 cells assessed as inhibition of LPS-induced COX2 expression after 24 hrs by Western blot analysis. The format is functional, cell-based.
The subject of series [6] is BV-2. Nature of the series: Anti-inflammatory activity in mouse BV2 cells assessed as inhibition of LPS-induced nitric oxide production pretreated followed by LPS-stimulation by griess assay. The format is functional, cell-based.

We go through 39 compounds from ChEMBL document CHEMBL4308892, “Synthesis and anti-neuroinflammatory activity of N-heterocyclic analogs based on natural biphenyl-neolignan honokiol” (Bioorg Med Chem Lett, 2019).

The term IC50 denotes the concentration that gives 50% inhibition. Consider `C=CCc1ccc(OC)c(-c2ccn(-c3ccccc3)n2)c1`, for which the inhibition result with BV-2 [1], with BV-2 [4] and in the series with BV-2 [5] was “Dose-dependent effect” throughout. Besides, the IC50 in the series on BV-2 [1] is 8.92 µM. Moreover, in series [2], the viability at 24 h, 20 µM is 68.6%. Besides, the Activity result in the series with BV-2 [3] was “Non-Toxic”.

In the case of `C=CCc1ccc(O)c(-c2ccn(-c3ccccc3)n2)c1`, in the series with BV-2 [1], the IC50 worked out at 73 µM. Further, the viability at 24 h, 20 µM in series [2] came to 125%.

As for `CCCn1ccc(-c2cc(CC)ccc2O)n1`, the 50% inhibitory concentration (IC50) with BV-2 [1] is greater than 200 µM. For the same compound, in series [2], the viability at 24 h, 20 µM turned out to be 109%.

As for `CCCc1ccc(O)c(-c2ccn(-c3ccccc3)n2)c1`, in the series with BV-2 [1], the IC50 came to 109 µM. In addition, in series [2], the viability at 24 h, 20 µM was determined as 125%.

Turning to `COc1ccc(Br)cc1-c1cc(COCc2ccccc2)on1`, the IC50 in the series with BV-2 [1] is greater than 200 µM. Moreover, the viability at 24 h, 20 µM in series [2] was 104%.

On to `CNC(=N)NCCC[C@H](N)C(=O)O` [TILARGININE], for which the IC50 in the series with BV-2 [1] amounted to 26.6 µM. The viability at 24 h, 20 µM in series [2] is 94.4%.

Take `C=CCOCc1cc(-c2cc(CC=C)ccc2OC)no1`: in the series with BV-2 [1], the IC50 is 28.7 µM. Also, the viability at 24 h, 20 µM in series [2] came to 141%.

`CCCc1ccc(O)c(-c2cc[nH]n2)c1`: in the series with BV-2 [1], the 50% inhibitory concentration (IC50) was determined as 60.2 µM. Besides, in series [2], the viability at 24 h, 20 µM was found to be 94.7%.

Take `C=CCc1ccc(OC)c(-c2cc(CN3CCN(CC(=O)OCC)CC3)on2)c1`: the IC50 in the series on BV-2 [1] was greater than 200 µM. In addition, the viability at 24 h, 20 µM in series [2] amounted to 93.2%.

For the compound `CCCCC/C=C/C(=O)CCc1ccc(O)c(OC)c1` [SHOGAOL], in the series with BV-2 [6], the IC50 turned out to be 5.59 µM.

Regarding `CCCc1ccc(O)c(-c2ccn(Cc3ccccc3)n2)c1`, the IC50 with BV-2 [1] was found to be 116 µM. Further, the viability at 24 h, 20 µM in series [2] was determined as 126%.

Turning to `COc1ccc(Br)cc1-c1ccn(Cc2ccccc2)n1`, in the series on BV-2 [1], the IC50 is greater than 200 µM. Moreover, in series [2], the viability at 24 h, 20 µM came out at 122%.

In the case of `CCCc1ccc(O)c(-c2ccn(CCC)n2)c1`, the IC50 in the series on BV-2 [1] was 91.3 µM. Moreover, the viability at 24 h, 20 µM in series [2] was 129%.

Regarding `C=CCc1ccc(O)c(-c2cc(CO)on2)c1`, the IC50 in the series with BV-2 [1] is greater than 200 µM. Further, the viability at 24 h, 20 µM in series [2] came to 126%.

Consider `C=CCc1ccc(O)c(-c2cc(CCC)on2)c1`, for which the IC50 with BV-2 [1] is greater than 200 µM. Besides, the viability at 24 h, 20 µM in series [2] was determined as 93.3%.

Turning to `Oc1ccc(Br)cc1-c1ccn(Cc2ccccc2)n1`, in the series with BV-2 [1], the IC50 was greater than 200 µM. Also, in series [2], the viability at 24 h, 20 µM is 107%.

On to `CCOC(=O)COCc1cc(-c2cc(Br)ccc2OC)no1`, for which the IC50 in the series on BV-2 [1] is greater than 200 µM. Further, in series [2], the viability at 24 h, 20 µM stood at 122%.

For `C=CCc1ccc(OC)c(-c2cc(CN3CCN(Cc4ccccc4)CC3)on2)c1`, in the series with BV-2 [1], the IC50 is greater than 200 µM. The viability at 24 h, 20 µM in series [2] came out at 98.6%.

Turning to `C=CCc1ccc(OC)c(-c2cc(CN3CCN(CC=C)CC3)on2)c1`, the IC50 in the series with BV-2 [1] worked out at 111 µM. Further, in series [2], the viability at 24 h, 20 µM stood at 101%.

Regarding `CCCc1cc(-c2cc(Br)ccc2OC)no1`, the IC50 in the series on BV-2 [1] was greater than 200 µM. The viability at 24 h, 20 µM in series [2] is 97.9%.

In the case of `C=CCc1ccc(OC)c(-c2cc(CN3CCN(C(=O)OC(C)(C)C)CC3)on2)c1`, the 50% inhibitory concentration (IC50) with BV-2 [1] turned out to be 76.9 µM. Further, the viability at 24 h, 20 µM in series [2] amounted to 117%.

For `C=CCn1ccc(-c2cc(Br)ccc2O)n1`, the IC50 in the series on BV-2 [1] turned out to be 112 µM. Further, the viability at 24 h, 20 µM in series [2] was determined as 113%.

With `C=CCc1ccc(OC)c(-c2cc(COCc3ccccc3)on2)c1`, the IC50 in the series with BV-2 [1] was greater than 200 µM. In series [2], the viability at 24 h, 20 µM was found to be 145%.

Regarding `C=CCc1ccc(O)c(-c2ccn(CC=C)n2)c1`, the inhibition result in the series with BV-2 [1], in the series on BV-2 [4] and with BV-2 [5] was “Dose-dependent effect” in each case. Moreover, in the series on BV-2 [1], the IC50 was 1.2 µM. In addition, the viability at 24 h, 20 µM in series [2] came to 59.9%. Moreover, the Activity result in the series on BV-2 [3] was “Non-Toxic”.

Consider `C=CCn1ccc(-c2cc(Br)ccc2OC)n1`, for which the IC50 in the series with BV-2 [1] was greater than 200 µM. The viability at 24 h, 20 µM in series [2] came out at 92.2%.

For `C=CCc1ccc(O)c(-c2ccc(OC)c(CC=C)c2)c1` [METHYLHONOKIOL], the IC50 in the series with BV-2 [1] stood at 52.3 µM. In addition, the viability at 24 h, 20 µM in series [2] amounted to 115%.

Regarding `C=CCc1ccc(O)c(-c2ccn(Cc3ccccc3)n2)c1`, the IC50 in the series with BV-2 [1] came to 92.5 µM. For the same compound, the viability at 24 h, 20 µM in series [2] worked out at 99.5%.

Take `C=CCc1ccc(O)c(-c2ccc(O)c(CC=C)c2)c1` [HONOKIOL]: the IC50 in the series on BV-2 [1] worked out at 17 µM. For the same compound, in series [2], the viability at 24 h, 20 µM turned out to be 118%.

Turning to `C=CCc1ccc(OC)c(-c2cc(COCC(=O)OCC)on2)c1`, the IC50 in the series on BV-2 [1] was determined as 25.9 µM. Further, in series [2], the viability at 24 h, 20 µM amounted to 126%.

`C=CCOCc1cc(-c2cc(Br)ccc2OC)no1`: the IC50 in the series on BV-2 [1] stood at 90.4 µM. The viability at 24 h, 20 µM in series [2] is 94.6%.

`COc1ccc(Br)cc1-c1cc(CO)on1`: the IC50 in the series with BV-2 [1] is greater than 200 µM. Moreover, the viability at 24 h, 20 µM in series [2] is 94.1%.

As for `C=CCc1ccc(OC)c(-c2cc(CO)on2)c1`, the IC50 in the series with BV-2 [1] is greater than 200 µM. Moreover, the viability at 24 h, 20 µM in series [2] came to 120%.

As for `COc1ccc(Br)cc1-c1cc(CN2CCN(C(=O)OC(C)(C)C)CC2)on1`, the IC50 with BV-2 [1] was greater than 200 µM. Besides, the viability at 24 h, 20 µM in series [2] came to 100%.

`C=CCc1ccc(OC)c(-c2cc(CCC)on2)c1`: the IC50 with BV-2 [1] was greater than 200 µM. In series [2], the viability at 24 h, 20 µM stood at 98.2%.

As to `C=CCc1ccc(OC)c(-c2ccn(CC=C)n2)c1`, in the series on BV-2 [1], the IC50 is greater than 200 µM. The viability at 24 h, 20 µM in series [2] was determined as 109%.

Consider `C=CCn1ccc(-c2cc(C=C)ccc2O)n1`, for which, in the series with BV-2 [1], the IC50 was 30.5 µM. The viability at 24 h, 20 µM in series [2] worked out at 105%.

For `Oc1ccc(Br)cc1-c1ccn(-c2ccccc2)n1`, the IC50 with BV-2 [1] was greater than 200 µM. The viability at 24 h, 20 µM in series [2] worked out at 109%.

For `COc1ccc(Br)cc1-c1ccn(-c2ccccc2)n1`, the IC50 in the series with BV-2 [1] was greater than 200 µM. In addition, the viability at 24 h, 20 µM in series [2] was 124%.

In the case of `C=CCc1ccc(OC)c(-c2ccn(Cc3ccccc3)n2)c1`, the IC50 with BV-2 [1] was 36 µM. The viability at 24 h, 20 µM in series [2] was determined as 112%.
